Where two headings read alike, the source gives them in different places.
Experiments:
[1] = stability test conditions not documented in the literature; cited from earlier work
[2] = Stability test of canagliflozin amorphous forms (moisture absorption, crystal transition); assay type: physicochemical; conditions: Temperature 25 ± 5° C., Humidity 50-60%, 3 months
Description: In order to illustrate that the canagliflozin amorphous form of the present invention is different from the amorphous form prepared by the general amorphous preparation method, the inventors select and compare the amorphous forms obtained by the above-mentioned practical methods, including rapid evaporation of solvent for curing, mixed solvent method and other related methods.

| SMILES | Crystal transition or not [1] | Obvious moisture absorption or not [1] | Crystal transition or not [2] | Obvious moisture absorption or not [2] |
| --- | --- | --- | --- | --- |
| Cc1ccc([C@@H]2O[C@H](CO)[C@@H](O)[C@H](O)[C@H]2O)cc1Cc1ccc(-c2ccc(F)cc2)s1 [CN103889429 Example 2] | No | No obvious |  |  |
| Cc1ccc([C@@H]2O[C@H](CO)[C@@H](O)[C@H](O)[C@H]2O)cc1Cc1ccc(-c2ccc(F)cc2)s1 [CN104119323 Example 1, reference compound] |  |  | No | No obvious |

From patent publication US11008357B2, “Method for preparing canagliflozin amorphous form” (Zhejiang Huahai Pharmaceutical Co., Ltd., priority 2017, dated 2021)
